# Reference: patent US6706491B1, “Reagents and methods for identifying and modulating expression of genes regulated by p21” (The Board of Trustees of the University of Illinois, priority 1999, dated 2004)
# What was measured:
# p21 = p21 induction in p21-9 cells by IPTG (p21 ELISA); assay type: cell-based, human
# Method: p21 expression from the LNp21CO3 vector in p21-9 cells was induced by culturing the cells in DMEM medium containing 10% fetal calf serum (Hyclone, Logan, Utah) and IPTG. […] Upon removing the cells from IPTG-containing media, p21 expression fell about as rapidly as it had risen, returning to pre-induction levels at about 24 hours after IPTG was removed, (FIG. 2B).
# (§1) Colony assays for recovery from IPTG treatment were performed by plating about 2,000 p21-9 cells per 10 cm culture dish in DMEM/10% FCS and the presence or absence of IPTG. Cells were allowed to form colonies for 10 days before their clonogenic capacity was determined. p12-9 cells were treated with three concentrations of IPTG: 0.5 μM, 5 μM and 50 μM. […] In contrast, continuous exposure of the cells to 5 μM or 50 μM IPTG reduced the clonogenicity of p2l-9 cells by 80% and 100%, respectively.
# Expression of 69 of these genes was individually tested by RT-PCR or northern hybridization with probes derived from inserts of the cDNA clones present in the microarray; these cDNAs were obtained from Genome Systems, Inc. In addition, enzyme-linked immunosorbent assay (ELISA) measurement of p21 protein was carried out using WAF1 ELISA kit (obtained from Oncogene Science, Uniondale, N.Y.) as described (Chang et al., 1999, Oncogene 18: 4808-4818). The following primary antibodies were used for immunoblotting: mouse monoclonal antibodies against Cdc2 (Santa Cruz), cyclin A (NeoMarkers), Plk 1 (Zymed) and Rb (PharMingen); rabbit polyclonal antibodies against MAD2 (BadCo), p107 (Santa Cruz), CTGF (Fisp-12; a gift of Dr. L. Lau), Prc 1 (a gift of Drs. W. Jiang and T. Hunter), and topoisomerase IIα (Ab0284; a gift of Dr. W. T. Beck), and sheep polyclonal antibody against. SOD2 (Calbiochem). Horse radish peroxidase (HRP)-conjugated secondary antibodies used were goat anti-mouse and goat anti-rabbit. IgG (Santa:Cruz) and rabbit anti-sheep IgG (KPL). Protein concentrations in all samples were equalized after measurement with BioRad-protein assay kit. Immunoblotting was carried out by standard procedures, and the signal was detected by chemiluminescence using LumiGlo (KPL).
# p21-9 cells [1] = assay: 3H-thymidine labeling index (autoradiography) in p21-9 cells; assay type: cell-based, human
# Method: (§2) Cell growth in the presence of IPTG was assayed in three ways: measuring ^3H-thymidine incorporation (termed the “labeling index”); observing the number of mitotic cells in the culture by microscopy (termed the “mitotic index”) and determining the distribution of the culture cells in different portions of the cell cycle (termed the “cell cycle distribution”).
# ^3H-thymidine incorporation assays were performed substantially as described by Dimri et al. (1995, Proc. Natl. Acad. Sci. USA 92: 9363-9367). Cells were cultured in the presence of ^3H-thymidine for 3h, and then analyzed by autoradiography. DNA replication as determined by autoradiography ceased entirely by 9 hours after addition of IPTG to the culture media (FIG. 3A).
# p21-9 cells [2] = assay: Mitotic index (microscopy after DAPI staining) in p21-9 cells; assay type: cell-based, human
# Method: as §2
# (§3) The mitogenic index was determined by observing cells microscopically and calculating the number of cells in mitosis after staining with 5 μg/mL 4,6-diamino-2-phenylindole (DAPI), and images were collected using a Leica DMIRB fluorescence microscope and Vaytek (Fairfield, Iowa) imaging system. Microscopically-detectable mitotic cells disappeared from these cultures in the presence of IPTG in two stages: the first occurring between 0-4 hours after IPTG addition (wherein the mitotic index dropped from about 15% in untreated cells to about 5% in IPTG-treated cells) and then again between about 10-14 hours after IPTG addition (wherein the mitotic index dropped to zero at about 13 hours after IPTG addition (FIG. 3B).
# p21-9 cells [3] = assay: Cell cycle distribution (FACS, propidium iodide) in p21-9 cells; assay type: cell-based, human; conditions: after 24 hrs of 50 μM IPTG
# Method: as §2
# Cell cycle distribution was determined using FACS analysis of DNA content after staining with propidium iodide as described by Jordan et al. (1996, Cancer Res. 56: 816-825) using Becton Dickinson FACSort. By this time, 42-43% of IPTG-treated cells were arrested in G1 and G2, respectively, and about 15% of the cells were arrested with S-phase DNA content.
# p21-9 cells [4] = assay: Colony assay for recovery from IPTG treatment; assay type: cell-based, human; conditions: for decreased clonogenicity: 3-5 days treatment; for reduction of clonogenicity: continuous exposure
# Method: as §1
# p21-9 cells [5] = assay: Morphology of mitotic figures after release from IPTG; assay type: cell-based, human; conditions: 1-2 days after release
# Method: as §3
# A major difference between cells that were inhibited by IPTG for one day compared with those inhibited for S days emerged, however, when the morphology of attached mitotic cells arising 1-2 days after release from IPTG was examined. […] The percentage of normal mitoses in 1-day and 5-day IPTG treated cells were 45% and 2%, respectively, which is close to the corresponding values for clonogenic recovery (38% and 1%).
# HS 15.T cells = assay: Mitogenic activity assay (3H-thymidine incorporation); assay type: cell-based, human; conditions: media supplemented with 1% or 2% FCS; 60 hr then 24 hrs label
# Method: (§4) In these experiments, conditioned media were prepared by plating 10^6 p12-9 cells per 15 cm plate in the presence of DMEM/10% FCS. The next day, IPTG was added to a final concentration of 50 μM, and this media was replaced three days later with DMEM supplemented with 0.5% FCS and 50 μM IPTG. Two days later (days 3-5 of IPTG treatment), this conditioned media was collected and stored at 4° C. up to 15 days before use. Control media were prepared by adding IPTG-free DMEM/0.5% FCS to untreated cells grown to the same density as IPTG-treated cells and collecting the media two days thereafter.
# The slow-growing human fibrosarcoma cell line HS 15.T was used to detect mitogenic activity in these conditioned media. For mitogenic activity assays, both types of conditioned media, as well as fresh media and 1:1 mixtures of conditioned media and fresh media were used to test mitogenic activity. In these experiments, the conditioned media were supplemented with 1% or 2% FCS. Briefly, HS 15.T cells were plated in 12-well plates at 15,000 cells per well. Two days later, these cells were cultured in different types of media. […] Cells were then collected and their ^3H-thymidine incorporation determined as described by Mosca et al. (1992, Mol. Cell. Biol. 12: 4375-4383).
# C8 cells = assay: Apoptosis / cell survival assay in low serum; assay type: cell-based, mouse; conditions: IPTG added by itself
# Method: as §4
# The effect of this conditioned media on apoptosis was also determined. These experiments used a mouse embryo fibroblast line C8, immortalized by E1A. […] Apoptosis was analyzed by plating 3×10^5 C8 cells per 6-cm plate, and replacing the media on the following day with fresh media supplemented with 0.4% serum or with conditioned media (no fresh serum added). DNA content analysis and DAPI staining were carried out after 24 hrs and 48 hrs, and relative cell numbers were measured by methylene blue staining (Perry et al., 1992, Mutai. Res. 276: 189-197) after 48 hrs in low-serum media.
structure (smiles),measurement,setting,value
"CC(C)S[C@@H]1O[C@H](CO)[C@H](O)[C@H](O)[C@H]1O [IPTG, isopropyl-β-thiogalactoside]",increase in p21 gene expression,p21; 0.5 μM IPTG,no measurable increase over basal p21 levels
same,increase in p21 gene expression,p21; 5 μM IPTG,half-maximal
same,increase in p21 gene expression,p21; 50 μM IPTG,maximal increase
same,time of peak p21 expression post-induction,p21; 50 μM IPTG,about 24 hours
same,increase in p21 levels,"p21; IPTG-treated p21-9 cells, 50 μM IPTG",15-20 fold
same,time to complete cessation of DNA replication after addition of IPTG,p21-9 cells [1]; 50 μM IPTG,≤ 9 h
same,time to resumption of DNA replication after release from IPTG,p21-9 cells [1]; after removal of 50 μM IPTG,about 20 hours
same,mitotic index,"p21-9 cells [2]; 0-4 hours after addition of 50 μM IPTG, about 15% in untreated cells",about 5%
same,time at which mitotic index dropped to zero after IPTG addition,p21-9 cells [2]; 50 μM IPTG,about 13 hours
same,time to resumption of mitosis after IPTG release,p21-9 cells [2]; after removal of 50 μM IPTG,about 30 hours
same,"cells arrested in G1 and G2, respectively",p21-9 cells [3],42-43%
same,cells arrested with S-phase DNA content,p21-9 cells [3],about 15%
same,colony formation,p21-9 cells [4]; 0.5 μM IPTG,did not inhibit colony formation
same,colony formation,p21-9 cells [4]; 5 μM IPTG removed after 12 or 14 hours,substantially undiminished colony formation
same,decreased clonogenicity,p21-9 cells [4]; 5 μM IPTG,55-58%
same,decrease in clonogenicity,p21-9 cells [4]; 50 μM IPTG removed after 12 or 14 hours,58-63%
same,decreased clonogenicity,p21-9 cells [4]; 50 μM IPTG,95-99%
same,reduction of clonogenicity,p21-9 cells [4]; 5 μM IPTG,80%
same,reduction of clonogenicity,p21-9 cells [4]; 50 μM IPTG,100%
same,percentage of normal mitoses,p21-9 cells [5]; 1-day IPTG treatment,45%
same,percentage of normal mitoses,p21-9 cells [5]; 5-day IPTG treatment,2%
same,effect on 3H-thymidine incorporation by HS 15.T cells,HS 15.T cells,no effect
same,effect on apoptosis in C8 cells,C8 cells,no effect on apoptosis
